Measured values published in US4735943A, “Eburnamonine oxime derivatives, salts thereof, and pharmaceutical agents containing the same” (Sanwa Kagaku Kenkyusho Co., Ltd., priority 1984, dated 1988).

How the values were obtained:
[1] = in vivo; details: mouse, male mice, oral, mortality after 72 hours
[2] = test system: erythrocyte deformability; assay: Acceleration on Erythrocyte Deformability (filtration-pressure method); format: in vivo, Wister male rats; details: rats, 10 mg/kg oral, blood 1 h after administration, 0.1% erythrocyte suspension
Protocol: (Acceleration on Erythrocyte Deformability) Each of testing compounds was orally administered to an amount of 10 mg/kg to Wister male rats (about 250 g, 5 animals/group). After one hour from the administration, blood sample was collected to prepare 0.1% erythrocyte suspension. An action of the compound to an erythrocyte deformability was studied in accordance with a filtration-pressure method to obtain results as shown in following Table 5.

[3] = test system: blood flow in vertebral artery; assay: Cerebral Blood Flow Increase (blood flow in vertebral artery, electromagnetic rheometer); format: in vivo; details: anesthetized mongrel dogs, 1.0 mg/dog into vertebral artery
Protocol: (Cerebral Blood Flow Increase) Male and female mongrel dogs anesthetized with nembutal (sodium pentobarbital) were employed as subject and a blood flow in vertebral artery of those animals were measured with use of an electromagnetic rheometer. Each of testing compounds was administered to vertebral artery in a ratio of 1.0 mg/dog to determine a change in blood flow in the vertebral artery.

[4] = test system: ADP aggregation of platelets; assay: Depression on Blood Platelet Aggregation, ADP; format: cell-based, Wister male rat; details: in vitro, rat platelet plasma, read-out: depression Ratio to ADP; for inhibition at 10 µg/mL: final conc. 10 μg/ml, negative values given as "not effective"
Text: (§1) (Depression on Blood Platelet Aggregation) With use of a blood-plasma with excess platelets (obtained from a Wister male rat, about 250 g), a depressing effect of each testing compound to ADP and collagen aggregations was studied in vitro (3 to 5 samples/group).Results are shown in following Table 4.

[5] = test system: collagen aggregation of platelets; assay: Depression on Blood Platelet Aggregation, collagen; format: cell-based, Wister male rat; details: in vitro, rat platelet plasma, read-out: depression Ratio to Collagen; for inhibition at 10 µg/mL: final conc. 10 μg/ml
Text: as §1

[6] = test system: brain of rats with an essential hypertension (SHR); assay: Cerebral Metabolic Activation (cerebral ischemia by ligation of both common carotid arteries); format: in vivo, male); details: 10 mg/kg oral 1 h after ligation, measured 5 h after ligation
Protocol: (Cerebral Metabolic Activation) According to a known method [Fujishima et al, "Rinshou-to-Kenkyu (The Clinics and Studies)" 51, 3532, 1974], both common carotid arteries of rats with an essential hypertension (SHR, male, 250-350 g, 4 to 5 animals/group) were ligated to cause a cerebral ischemia. After one hour from the ligation, each of testing compounds was orally administered in an amount of 10 mg/kg and various parameters in brain were measured at the time having lapsed 5 hours from the ligation.

[7] = test system: d,d-mice; assay: Cerebral Function Protection (recovery after rod dropped on vertex); format: in vivo, male; details: 10 mg/kg oral, 30 min before, negative values given as "not effective"
Protocol: (Cerebral Function Protection) To each of male d,d-mice (16-24 g, 6 to 24 animals/group), each of testing compounds was orally administered in an amount of 10 mg/kg. After 30 minutes from the administration, a cylindrical rod made of bakelite (diameter: 1 cm, weight: 36 g) was free dropped with a level height of 40 cm on a vertex of the mouse to hypnotize the same, in accordance with a method disclosed by […] et al ["Tyaku-no-Ayumi (The Progress in Medicines)", 104 (4), 253, 1978]. Observations were continued until a recovering reflex from the lethargy and a spontaneous motion appear to determine a reduction ratio of time period on such behavior appearances.

SMILES	LD50 at 72 h [1] [mg/kg]	Reduction Rate in Filtering Pressure [2] [%]	Increase in Blood Flow [3] [%]	inhibition at 2 µg/mL ([4]; final conc. 2 μg/ml) [%]	inhibition at 2 µg/mL ([5]; final conc. 2 μg/ml) [%]	Amount of ATP in brain [6] [µmol/g]	Amount of Glucose in brain [6] [nmol/g]	Amount of Lactic acid in brain [6] [µmol/g]	Reduction ratio, time to appear spontaneous motion [7] [%]	Reduction ratio, time to recover sit-up reflex [7] [%]	inhibition at 10 µg/mL [4] [%]	inhibition at 10 µg/mL [5] [%]
CCN(CC)CCON=C1C[C@]2(CC)CCCN3CCc4c(n1c1ccccc41)[C@@H]32 [Example 2, (3α,16α)-eburnamenin-14(15H)-one O-[2-(N,N-diethylamino)ethyl]oxime]	611	6.0	269.5	5.7	73.8	0.36	1030	4.62	48.7	54.3	–	–
CC[C@]12CCCN3CCc4c(n(c5ccccc45)C(=NOCCN(C)C)C1)[C@@H]32 [Example 3, (3α,16α)-eburnamenin-14(15H)-one O-[2-(N,N-dimethylamino)ethyl]oxime]	700	10.2	247.3	–	–	0.18	740	7.01	-11.3	-33.0	5	3.2
CC[C@]12CCCN3CCc4c(n(c5ccccc45)C(=NOCCN4CCCC4)C1)[C@@H]32 [Example 4, (3α,16α)-eburnamenin-14(15H)-one O-[2-(1-pyrrolidinyl)ethyl]oxime]	532	9.3	260.6	–	–	0.25	896	6.34	-71.6	-96.1	-10	4.4
CC[C@]12CCCN3CCc4c(n(c5ccccc45)C(=NOCCN4CCN(c5ccccc5OC)CC4)C1)[C@@H]32 [Example 5, (3α,16α)-eburnamenin 14(15H)-one O-{2-[4-(2-methoxyphenyl)-1-piperazinyl]ethyl}oxime]	660	13.2	179.3	–	–	0.28	802	5.50	6.9	0.4	5.5	9.3
CC[C@]12CCCN3CCc4c(n(c5ccccc45)C(=NOCC(O)CN4CCN(c5ccccc5OC)CC4)C1)[C@@H]32 (stereo partly drawn) [Example 6, (3α,16α)-eburnamenin-14(15H)-one O-{2-hydroxy-3-[4-(2-methoxyphenyl)-1-piperazinyl]propyl}oxime]	560	35.1	357.7	–	–	0.32	1010	4.95	47.2	23.5	6.3	9.5
CC[C@]12CCCN3CCc4c(n(c5ccccc45)C(=NO)C1)[C@@H]32 [Reference Example, (3α,16α)-eburnamenin-14(15H)-one oxime]	510	8.3	144.9	–	–	0.20	592	7.10	-5.3	-12.4	-1.2	5.4
CCOC(=O)C1=C[C@]2(CC)CCCN3CCc4c(n1c1ccccc41)[C@@H]32 [vinpocetine, reference compound]	–	46.3	261.4	–	–	0.36	1120	7.00	–	–	-0.2	4
